Assays:
[1] = test system: CD34+CD38- (stem) and CD34+CD38+ (prog) cells; assay: cyto-ID flow cytometry (autophagic flux); type: cell-based, human; settings: day 2
Description: (A) Representative mmunofluorescence images taken by confocal microscopy for DAPI (blue) and LC3II staining (green) for CD34+CD38− cells (stem) following 2 days of treatment with DMSO control or 2 uM 4HPR with and without the autophagy inhibitor baflomycin A1 (BAF) to assay for basal autophagy and autophagic flux. (B) Quantitation of LC3II foci area as a percentage of total cell area for stem and prog (CD34+38+) cells from three independent CB using R and Image J software. (C) LCII foci area is increased with 4HPR treatment relative to control in the presence of BAF only in stem populations and not Prog populations. (D) Representative flow cytometry histogram plot of cyto-ID fluorescence intensity of control (black) and 4HPR (green) treated stem cells to assay for autophagic flux. Lower mean fluorescence intensity (MFI) indicates more turnover of autophagosomes and thus increased autophagic flux. […] (F) Cytokine withdrawal for 3 hours activates autophagic flux in CB stem cells to similar levels as 2 uM 4HPR as assayed by cyto-ID flow cytometry at day 2 post-treatment (n=3).
(B). […] This difference in mitochondrial content is lost by day 3 post culture (See FIG. 3K).
We hypothesize that such selective enhancement of CFC cloning efficiency with 4HPR treatment is a result of activating autophagy in HSC in human CB. […]

[2] = test system: ex vivo expanded human CB cells in NSG mice; assay: Primary xenotransplantation of ex vivo expanded CB cells, 16 weeks
From the text: (A) Experimental scheme (B) Representative FACS analysis data of in vitro culture for 16 HSC dose time course (n=3). The number of (C) viable cells, (D) CD15+ myeloid cells, (E) GlyA+ erythroid cells, and (F) CD34+ primitive cells measured for the 16 LTRC dose with HTS flow cytometry analysis at day 8 post-treatment for vehicle control or 4HPR prior to xenotransplantation (n=5 biological replicates, 4 in technical triplicate, marked with different symbols). (G) Human CD45+ engraftment at 16 weeks post transplant in injected femur (n=4, 5 mice/biological experiment). Lineage analysis of control or 4HPR transplanted mice from FIG. 5G for (H) B lymphoid, (I) myeloid, (J) erythroid, and (K) primitive CD34+ at the 16 LTRC dose. (L) CD45+ cells were isolated from 5 biological experiments of the 16 LTRC dose primary mice and transplanted at limiting doses into secondary recipients for 16 weeks. Human CD45+ marking of >0.1% was considered positive for secondary engraftment. Limiting dilutation analysis was performed using ELDA software and the long-term repopulating cell (LTRC) frequency for each biological replicate plotted and the average LTRC frequency calculated.
All bones for each mouse were pooled following chimerism analysis and frozen for subsequent CD34 hierarchy analysis. Flow cytometry analysis were performed on CD34+ enriched cells using Miltenyl human CD34 enrichment protocol on thawed samples for the human CB hierarchy at the 16 HSC dose from 4 biological experiments, marked with different symbols (n=4 mice per biological experiment). The number of (B) CD34+CD19− cells, (C) CD34+CD38-, (D) CD34+CD38+, (E) HSC, (F) MPP, (G) MLP, and (I) GMP were quantitated from each mouse at 16 weeks post-transplant. Representative HSC hierarchy analysis scheme of CD34 enriched cells isolated from mice 16 weeks post-transplantation engrafted with ex vivo cultured CB cells in the presence of (J) vehicle control (black) or (K) 4HPR (green).
(A) The number of cells following 8 days of ex vivo culture at the 16 LTRC dose grown as in FIG. 5A for the indicated drug treatments (n=2). […] (2 biological replicates) (E) CD45+ cells were isolated from 2 biological experiments of the 16 LTRC dose primary mice and transplanted at limiting doses into secondary recipients for 16 weeks. […] Limiting dilutation analysis was performed using ELDA software and the long-term repopulating cell (LTRC) frequency for each biological replicate plotted and the average LTRC frequency calculated.
To determine if 4HPR preserves functional HSC in CB liquid culture, we devised an experimental protocol to test the effect of 4HPR treatment in short-term ex vivo expansion culture on repopulation in serial NSG xenotransplantation to functionally read out LT-HSC (FIG. 5A). […]

SMILES: CC1=C(/C=C/C(C)=C/C=C/C(C)=C/C(=O)Nc2ccc(O)cc2)C(C)(C)CCC1 [4HPR, N-(4hydroxyphenyl)retinamide]
- autophagic flux by cyto-ID ([1]; 0.2 uM or 2 uM 4HPR vs vehicle, stem vs prog): only significantly induced in stem but not prog cells
- autophagy activated by cytokine withdrawal (cytoID) ([1]; CB stem cells, 3 hour cytokine withdrawal): further enhanced in the presence of 4HPR
- lineage distribution for B lymphoid, myeloid and erythroid ([2]; 16 HSC dose, 16 weeks): comparable between ctrl and 4HPR transplanted cells
- primitive lineage negative CD34+ cells in transplanted mice ([2]; 16 LTRC dose, 16 weeks): equally prevalent
- human CD45 chimerism ([2]; 16 weeks post transplant, all cell doses): the same CD45 chimerism as vehicle control
- HSPC populations of the HSC hierarchy in individual mice ([2]; 16 weeks post-transplant, control vs 4HPR expanded cells): on average identical
